Tests used:
HDAC2 = molecular target: T1, HDAC2 (Homo sapiens, UniProt Q92769); assay: In vitro HDAC inhibition fluorescence assay, HDAC2; type: biochemical
T1 construct: purchased BPS Bioscience
Procedure: (§1) All of the HDAC enzymes were purchased from BPS Bioscience. In vitro HDAC inhibition assays were conducted as previously described. In brief, 20 μL of recombinant HDAC enzyme solution (HDAC1-9, 11) was mixed with various concentrations of the tested compound (20 μL). […] After incubation at 37 °C for 2 h, the catalysis was stopped by the addition of 10 μL of developer containing 30 mg/mL trypsin and 6 μM trichostatin A (TSA). Then, 30 min later, the fluorescence intensity was measured using a microplate reader at excitation and emission wavelengths of 360 and 460 nm, respectively. The inhibition ratios were calculated from the fluorescence intensity readings of tested wells relative to those of control wells, and the IC50 curves and values were determined by GraphPad Prism 6.0, using the “log(inhibitor) vs. normalized response-variable slope” function.

Kasumi-1 cells = assay: Cell viability assay (resazurin), Kasumi-1; type: cell-based; details: Homo sapiens, Kasumi 1, 72 h; read-out: IC50 anti-proliferative activity Kasumi-1
Procedure: (§2) The AML cell lines MV4-11, THP-1, KASUMI-1 and HL-60 were purchased from Procell Life Science & Technology Co., Ltd. (Wuhan, China). THP-1 and KASUMI-1 were cultured in RPMI-1640 complete medium containing 10% fetal bovine serum and 1% penicillin and streptomycin. MV4-11 was cultured in IMDM complete medium containing 10% fetal bovine serum and 1% penicillin and streptomycin. HL-60 was cultured in IMDM complete medium containing 20% fetal bovine serum and 1% penicillin and streptomycin. All cell lines were cultured in an incubator with humidity set at 95%, temperature at 37 °C and 5% CO2.
(§3) MV4-11, THP-1, KASUMI-1 and HL-60 cells were plated in 96-well transparent plates (10,000 to 15,000 cells/100 μL) and after incubation overnight, cells were treated with gradient-diluted inhibitors with several concentrations. After the cells were incubated with inhibitors for 72 h, 1 mg/mL of Resazurin (Sigma-Aldrich, Saint Louis, MO, USA) was added (working concentration was 0.1 mg/mL). After incubation at 37 °C for about 3 h, the fluorescence intensity of […] was measured at 560 nm/590 nm (excitation/emission) with a Spectra Max i3 Microplate Reader, and the cell viability was determined. The IC50 curve was drawn using GraphPad Prism 9.5 software.

HDAC1 = molecular target: T2, HDAC1 (Homo sapiens, UniProt Q13547); assay: In vitro HDAC inhibition fluorescence assay, HDAC1; type: biochemical; details: for inhibition at 0.01 µM: 10 nM; for inhibition at 0.01 µM / inhibition at 0.1 µM: read-out: Inhibition Rate of HDAC1 (%); for inhibition at 0.1 µM: 100 nM
T2 construct: purchased BPS Bioscience
T2 sequence (Q13547 whole entry): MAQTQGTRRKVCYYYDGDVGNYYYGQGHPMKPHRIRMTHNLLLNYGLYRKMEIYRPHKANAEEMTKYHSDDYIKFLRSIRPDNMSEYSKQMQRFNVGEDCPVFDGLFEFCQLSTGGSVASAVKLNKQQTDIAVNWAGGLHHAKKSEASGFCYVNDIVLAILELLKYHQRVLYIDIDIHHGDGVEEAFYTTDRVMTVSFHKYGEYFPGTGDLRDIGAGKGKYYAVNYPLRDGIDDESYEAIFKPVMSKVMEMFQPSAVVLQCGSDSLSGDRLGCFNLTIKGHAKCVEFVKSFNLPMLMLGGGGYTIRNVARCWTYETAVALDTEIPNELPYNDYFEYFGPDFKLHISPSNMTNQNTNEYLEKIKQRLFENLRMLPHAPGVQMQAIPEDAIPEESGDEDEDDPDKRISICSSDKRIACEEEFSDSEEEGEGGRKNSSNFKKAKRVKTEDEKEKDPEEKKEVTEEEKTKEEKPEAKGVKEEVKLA
Procedure: as §1

HL-60 cells = assay: Cell viability assay (resazurin), HL-60; type: cell-based; details: Homo sapiens, HL-60, 72 h; read-out: IC50 anti-proliferative activity HL-60
Procedure: as §2, §3

MV4-11 cells [1] = assay: Cell viability assay (resazurin), MV4-11; type: cell-based; details: Homo sapiens, MV4-11, 72 h; read-out: IC50 anti-proliferative activity MV4-11
Procedure: as §2, §3

HDAC3 = molecular target: T3, HDAC3 (Homo sapiens, UniProt O15379); assay: In vitro HDAC inhibition fluorescence assay, HDAC3; type: biochemical; details: for inhibition at 0.01 µM: 10 nM; for inhibition at 0.01 µM / inhibition at 0.1 µM: read-out: Inhibition Rate of HDAC3 (%); for inhibition at 0.1 µM: 100 nM
T3 construct: purchased BPS Bioscience
T3 sequence (O15379 whole entry): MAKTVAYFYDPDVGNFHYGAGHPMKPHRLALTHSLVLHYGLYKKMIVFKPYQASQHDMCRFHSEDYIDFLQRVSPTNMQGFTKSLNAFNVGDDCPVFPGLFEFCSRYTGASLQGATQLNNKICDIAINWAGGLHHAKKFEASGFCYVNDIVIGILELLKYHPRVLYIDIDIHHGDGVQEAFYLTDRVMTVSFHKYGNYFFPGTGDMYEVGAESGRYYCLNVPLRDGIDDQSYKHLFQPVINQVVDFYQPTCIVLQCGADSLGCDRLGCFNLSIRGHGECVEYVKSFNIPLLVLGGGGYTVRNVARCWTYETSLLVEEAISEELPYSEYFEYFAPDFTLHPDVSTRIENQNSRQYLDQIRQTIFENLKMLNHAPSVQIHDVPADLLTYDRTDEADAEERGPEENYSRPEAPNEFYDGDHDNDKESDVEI
T3 sequence (Q9Y618 395-489 partner limits assumed): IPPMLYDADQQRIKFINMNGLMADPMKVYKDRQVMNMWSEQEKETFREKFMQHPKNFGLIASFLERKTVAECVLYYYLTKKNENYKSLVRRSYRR
Procedure: as §1

THP-1 cells = assay: Cell viability assay (resazurin), THP-1; type: cell-based; details: Homo sapiens, THP-1, 72 h; read-out: IC50 anti-proliferative activity THP-1
Procedure: as §2, §3

[2] = test system: MV4-11, THP-1, HL60 and Kasumi-1 cells; assay: Cell viability assay, four AML cell lines together; type: cell-based; details: synthesized SCA
Procedure: as §2, §3

MV4-11 cells [3] = assay: Western blot analysis; type: cell-based; details: Venetoclax monotherapy, 24 h
Procedure: MV4-11 cells were inoculated into 12-well plates at a density of 800,000 cells/mL. After incubation overnight, each well was treated with different concentrations of 25c and Venetoclax alone or in combination. After treatment for 24 h, the cells were collected and washed with pre-cooled PBS. A protease inhibitor (cocktail) and RIPA buffer were added for cell lysis. The decomposed solution was centrifuged at 12,000 rpm for 15 min at 4 °C, and the extracted protein was located in the supernatant. The proteins in each sample were denatured by heating at 100 °C in loading buffer (5×) for 10 min. The same amount of proteins in each sample was separated by SDS-PAGE and then electrotransferred to a PVDF membrane (Merck Millipore, Billerica, MA, USA) and enclosed in 5% skim milk powder for 1 h. The primary antibody diluted with an immune response booster solution was incubated in a shaking bed at 4 °C overnight, and the horseradish (HRP)-conjugated second antibody diluted with 5% skim milk powder was incubated at room temperature for 1 h on the second day. After the PVDF membrane was washed with TBST, the target protein bands could be detected with chemiluminescent reagents (Millipore, Billerica, MA, USA) and visualized in the Tanon 5200 + fluorescence imager.
The primary antibodies Caspase 3 (including Cleaved Caspase-3) (sc-56053), Mcl-1 (94296S), Bcl-xL (ab98143), γ-H2AX (9718S), AcHH3 (Lys27) (8173S), AcHH4 (sc-377520), HH3 (ab1791), Ac-tubulin (sc-23950), HDAC6 (sc-28386), α-tubulin (sc-23948), GAPDH (sc-59540) and β-actin (8H10D10) were purchased from Abcam, Cell Signaling Technology and Santa Cruz Biotechnology.

MV4-11 cells [4] = assay: Microdilution checkerboard assay, 25c combined with Venetoclax; type: cell-based; details: Homo sapiens, 72 h, read-out: Inhibition Rate (%)
Procedure: The inhibition effect of 25c combined with Venetoclax on the proliferation of MV4-11 cells was determined by microdilution checkerboard assay. CompuSyn software was used to calculate the combined action index of the two compounds, and the cell inhibition rates of the two compounds acting alone and the combined action were input to calculate the combination index (CI) to evaluate the synergistic effect of the drugs. A CI value less than 1 indicates a synergistic effect, a CI value equal to 1 indicates an additive effect and a CI value greater than 1 indicates an antagonistic effect.

T1 sequence (Q92769 whole entry): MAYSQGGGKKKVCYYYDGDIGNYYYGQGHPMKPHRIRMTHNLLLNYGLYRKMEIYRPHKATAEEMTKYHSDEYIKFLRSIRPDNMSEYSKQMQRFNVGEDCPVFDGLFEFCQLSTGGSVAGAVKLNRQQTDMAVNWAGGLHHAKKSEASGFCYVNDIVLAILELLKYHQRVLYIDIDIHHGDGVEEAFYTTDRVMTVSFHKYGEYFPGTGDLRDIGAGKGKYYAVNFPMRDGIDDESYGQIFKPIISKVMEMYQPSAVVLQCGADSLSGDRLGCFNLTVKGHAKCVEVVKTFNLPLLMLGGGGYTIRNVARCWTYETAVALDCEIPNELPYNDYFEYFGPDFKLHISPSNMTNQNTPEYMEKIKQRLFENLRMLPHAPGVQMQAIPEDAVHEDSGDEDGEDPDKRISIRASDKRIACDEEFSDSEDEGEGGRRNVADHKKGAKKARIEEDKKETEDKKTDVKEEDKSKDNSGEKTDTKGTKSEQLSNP

Row | SMILES | IC50 (HDAC2) [nM] | IC50 (Kasumi-1 cells) [nM] | IC50 (HDAC1) [nM] | inhibition at 0.01 µM (HDAC1) [%] | inhibition at 0.1 µM (HDAC1) [%] | IC50 (HL-60 cells) [nM] | IC50 (MV4-11 cells [1]) [nM] | IC50 (HDAC3) [nM] | inhibition at 0.01 µM (HDAC3) [%] | inhibition at 0.1 µM (HDAC3) [%] | IC50 (THP-1 cells) [nM] | anti-proliferative inhibitory activity in four AML cell lines [2] | enzyme inhibitory activity, HDAC1 (HDAC1; screening at 100 nM and 10 nM) | enzyme inhibitory activity, HDAC3 (HDAC3; screening at 100 nM and 10 nM) | level of cleaved-caspase3 (MV4-11 cells [3]) | inhibition at 0.04 µM (MV4-11 cells [4]; Venetoclax 0.04 μM alone) [%] | inhibition at 0.08 µM (MV4-11 cells [4]; Venetoclax 0.08 μM alone) [%] | inhibition at 0.15 µM (MV4-11 cells [4]; Venetoclax 0.15 μM alone) [%]
1 | CCCNNC(=O)C=Cc1ccc(CNCc2ccccc2)cc1 [Compound 25b, 3-(4-((Benzylamino)methyl)phenyl)-N′-propylacrylohydrazide] | 111 ± 16.9 | 448 ± 122 | 27 ± 2 | 21.8 ± 1.6 | 77 ± 0.3 | 736 ± 24.8 | 362 ± 76.8 | 2.7 ± 0.6 | 94.8 ± 0.1 | 97.9 ± 0.2 | 516 ± 145 | – | – | – | – | – | – | –
2 | CCCNNC(=O)C=Cc1ccc(CNCc2cccc3ccccc23)cc1 [Compound 25g, 3-(4-(((Naphthalen-1-ylmethyl)amino)methyl)phenyl)-N′-propylacrylohydrazide] | 46.3 ± 4.1 | 1010 ± 643 | 16 ± 1 | 33.9 | 76.5 ± 5 | 650 ± 247 | 582 ± 240 | – | 45.9 | 71.1 ± 1.6 | 1020 ± 498 | – | – | – | – | – | – | –
3 | Nc1ccccc1NC(=O)c1ccc(CNC(=O)OCc2cccnc2)cc1 [Entinostat, reference compound] | – | 480 ± 161 | – | 3.8 ± 1.1 | 37.6 ± 2.6 | 1100 ± 51.5 | 651 ± 37.4 | – | – | – | 1520 ± 218 | – | – | – | – | – | – | –
4 | CCCNNC(=O)C=Cc1ccc(CNC2Cc3ccccc3C2)cc1 [Compound 25e, 3-(4-(((2,3-Dihydro-1H-inden-2-yl)amino)methyl)phenyl)-N′-propylacrylohydrazide] | 161 ± 29 | 380 ± 147 | 36.5 ± 5 | 10.9 ± 1.2 | 78.7 ± 0.7 | 502 ± 189 | 353 ± 119 | 3.1 ± 1.5 | 94.8 ± 0.5 | 95.6 ± 0.2 | 451 ± 73.8 | – | – | – | – | – | – | –
5 | CCOC(=O)NCCCC(=O)NCCc1ccccc1 [SCA, Santacruzamate A] | – | > 10000 | – | – | – | > 10000 | > 10000 | – | – | – | > 10000 | no inhibitory activity was detected | no activity | no activity | – | – | – | –
6 | CC1(C)CCC(CN2CCN(c3ccc(C(=O)NS(=O)(=O)c4ccc(NCC5CCOCC5)c([N+](=O)[O-])c4)c(Oc4cnc5[nH]ccc5c4)c3)CC2)=C(c2ccc(Cl)cc2)C1 [Venetoclax] | – | – | – | – | – | – | – | – | – | – | – | – | – | – | slightly higher | 36.5 | 62.3 | 78.5

From PMC11204923, “Marine Cytotoxin Santacruzamate A Derivatives as Potent HDAC1-3 Inhibitors and Their Synergistic Anti-Leukemia Effects with Venetoclax” (Marine Drugs, 2024)
